Measured values from patent publication US20220119868A1, “PROFILING RNA-SMALL MOLECULE BINDING SITES WITH OLIGONUCLEOTIDES” (priority 2018, published 2022).
“And” between values parts separate entries of the source, which are not always exact repeats. Equal entries are not always repeated.

Experiments:
[1] = system: RNA library C (3×2 nucleotide asymmetric internal loops); test: 2DCS selection with RNA-seq and HiT-StARTS analysis (Zobs, Fitness Score); assay type: binding; set-up: key to Fitness Score: Zobs normalized so most significant interaction = 100
Source text: Identification of RNA-binding Small Molecules by 2DCS. […] We have previously validated the secondary structures formed by members of RNA libraries by enzymatic mapping^8, 12, 34. These discrete RNA motifs were selected because they are present in cellular RNAs. Due to the library-versus-library nature of these studies, they represent the largest screens completed to date, probing >52,000,000 interactions. Of the 1,987 compounds probed, 239 bound RNA (12.0%).
A final screen was then completed in which the 91 array-immobilized compounds were incubated with all five RNA motif libraries separately in the presence of oligonucleotide competitors F-J, d(AT)11 and d(GC)11. Oligonucleotides F-J mimic regions common to all library members, restricting binding to the randomized regions. (Note: oligonucleotide J was not used for hairpin selections.) After rigorous washing to remove unbound RNAs, bound RNAs were harvested and identified by RNA-seq. By completing selections under conditions of high oligonucleotides stringency (by use of excess competitor oligonucleotides), these studies identified small molecules that bound RNA motifs avidly. A challenge in the small molecule RNA-targeting area has been the development and identification of selective interactions between small molecules and RNAs. In myriad studies, 2DCS has defined selective RNA motif-small molecule interactions with varied affinities^11, 12, 35, 36.
Identification of Privileged RNA Space by RNA-Seq. Using RNA-seq, a large sequencing dataset was obtained for each pool of RNAs that were specifically bound to each small molecule. RNA libraries A, B, C, D, and E had at least 12.1-fold (average: 133.1±111.8), 6.7-fold (average: 80.8±78.7), 9.9-fold (average: 103.5±110.6), 7.2-fold (average: 75.7±65.6), and 6.0-fold (average: 36.3±31.6) coverage for each small molecule selection, respectively, as compared to the number of unique sequences within the corresponding RNA library. It was previously shown that at least 6-fold coverage is required to generate binding landscape maps^12. RNA-seq data were then analyzed by High Throughput Structure-Activity Relationships Through Sequencing (HiT-StARTS)^12 to identify the privileged RNA motifs that bind each small molecule. Briefly, the frequency of occurrence of a selected RNA was compared to the frequency of occurrence of the same RNA from RNA-seq analysis of the starting RNA library to account for biases arising during transcription and RT-PCR. This pooled population comparison affords the parameter Zobs, a metric of statistical confidence. A large, positive Zobs indicates a strong preference for binding the motif while a negative Zobs indicates a strong preference against binding the motif. A Fitness Score is assigned by normalizing the Zobs values to the most statistically significant small molecule-RNA interaction to 100. […] Structure-Activity Relationships (SAR). Next, the most privileged RNA motif binders and the most discriminated against RNA motifs (non-binders) for each compound selection was analyzed by generating LOGOS from the highest and lowest 0.5% of Zobs scores^37. By comparing the LOGOS for related compounds, or DiffLogos, SAR can be defined. Indeed, various hit compounds differ by a single functional group, including compounds A and B (FIG. 5). […] In contrast, the RNA motifs most hindered from binding compounds 1 and 2 (discriminated against) are quite different (FIG. 5B).
Oligonucleotides. All DNA oligonucleotides were purchased from Integrated DNA Technologies, Inc. (IDT) and used without further purification. RNA oligonucleotide competitors were purchased from Dharmacon and de-protected according to the manufacturer's standard procedure. All oligonucleotide solutions were prepared with NANOpure water. The RNA motif libraries were synthesized by in vitro transcription from the corresponding DNA template that was custom-mixed at the randomized positions to ensure equivalent representation of all four nucleotides. Compounds. […]

panel of 22 kinases = test: In vitro inhibition of a panel of kinases; assay type: biochemical; conditions: 20 μM; for kinases inhibited in the panel: panel of 22 kinases
CAMK4 = CAMK4 (Homo sapiens, UniProt Q16566); test: In vitro inhibition of a panel of kinases; assay type: biochemical; conditions: 20 μM
CAMK4, sequence (Q16566 whole entry): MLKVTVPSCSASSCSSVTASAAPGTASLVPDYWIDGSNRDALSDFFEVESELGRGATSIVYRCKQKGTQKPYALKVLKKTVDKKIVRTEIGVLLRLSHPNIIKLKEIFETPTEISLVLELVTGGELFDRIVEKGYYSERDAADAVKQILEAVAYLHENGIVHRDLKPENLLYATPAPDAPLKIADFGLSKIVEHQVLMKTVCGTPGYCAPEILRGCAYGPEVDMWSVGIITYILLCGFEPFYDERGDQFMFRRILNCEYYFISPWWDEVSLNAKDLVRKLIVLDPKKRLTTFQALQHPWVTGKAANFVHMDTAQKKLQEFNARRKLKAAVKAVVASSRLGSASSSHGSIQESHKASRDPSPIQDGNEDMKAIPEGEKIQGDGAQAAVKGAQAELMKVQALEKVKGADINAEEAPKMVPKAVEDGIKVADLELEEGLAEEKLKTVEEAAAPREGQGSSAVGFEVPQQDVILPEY
Source text: (§1) Effect of compounds on HCV replication. […] Cytotoxicity assays. […] Oligonucleotide profiling of target engagement in vitro. […] Primers can be found in Table 4. […] Inhibition of kinases. […] . Figure S7C).

[2] = system: HCV replication, SGR-Neo-RLuc-JFH1-2A replicon cells established in Huh-7.5; test: HCV replication in subgenomic replicon cells (Renilla luciferase); assay type: cell-based, Hepatitis C virus; conditions: for IC50: Hepatitis C virus, Huh7.5, read-out: IC50, inhibition of HCV replication
Source text: The compounds bind their cognate loops in the 3′ UTR with mid-nanomolar to low micromolar affinities (Table 1). It was next determined if the identified compounds could inhibit HCV RNA replication in HCV subgenomic replicon cells, in particular SGR-Neo-RLuc-JFH1-2A replicon cells established in Huh-7.5 (human hepatoma cells). In this system, an autonomously replicating viral RNA replicon is used to monitor efficiently RNA replication of the virus in the absence of spread of viral RNA to adjacent cells. This is achieved by replacing the structural proteins required to assembly progeny virions with a drug selectable marker (Neo) and a Renilla luciferase (RLuc) reporter gene. Once this replicon has been delivered to human hepatoma cells and selection with G418 (conferred by Neo selectable marker) has occurred, the expression and Renilla luciferase activity is directly correlated with the level of HCV replication^57.
They were therefore assayed for their ability to inhibit HCV replication using this replicon system, with DMSO vehicle and 2′-C-methyladenosine^17 triphosphate serving as negative and positive controls, respectively.
as §1

O=C(Nc1cccc(NC(=O)Nc2cc(C(=O)Nc3ccc(C4=NCCN4)cc3)ccc2C(=O)Nc2ccc(C3=NCCN3)cc2)c1)Nc1cc(C(=O)Nc2ccc(C3=NCCN3)cc2)ccc1C(=O)Nc1ccc(C2=NCCN2)cc1 [Compound 7]
Fitness Score ([1]; RNA motif 5′AAC3′/3′U_G5′): 33 | Zobs ([1]; RNA motif 5′AAC3′/3′U_G5′): 8.2 | Fitness Score ([1]; RNA motif 5′GAG3′/3′C_C5′): 73 | Zobs ([1]; RNA motif 5′GAG3′/3′C_C5′): 18.3 | Zobs ([1]; RNA motif 5′UCCAU3′/3′AUCA (non-binder)): −2.8 | Zobs ([1]; RNA motif 5′UCCUU3′/3′AUUA5′ (non-binder)): 1.1 | Fitness Score ([1]; RNA motif 5′UGU3′/3′G_A5′): 47 | Zobs ([1]; RNA motif 5′UGU3′/3′G_A5′): 11.8 | Zobs ([1]; RNA motif 5′UUA3′/3′A_U5′): 25.2 | Fitness Score ([1]; RNA motif 5′UUA3′/3′A_U5′, Zobs normalized to most significant interaction = 100): 100 | kinases inhibited in the panel (panel of 22 kinases): affected seven kinases modestly | average percent inhibition of the seven affected kinases (panel of 22 kinases): 16±3% | inhibition of CAMK4 in vitro (CAMK4): most significantly inhibited | IC50 [2]: 17 ± 0.5 µM

O=C(Nc1ccc(C2=NCCN2)cc1)c1cc(C(=O)Nc2ccc(C3=NCCN3)cc2)cc(C(=O)Nc2ccc(C3=NCCN3)cc2)c1 [Compound 8]
Fitness Score ([1]; RNA motif 5′GAU3′/3′C_A5′): 87 | Zobs ([1]; RNA motif 5′GAU3′/3′C_A5′): 11.8 | Fitness Score ([1]; RNA motif 5′GCU3′/3′C_A5′): 79 | Zobs ([1]; RNA motif 5′GCU3′/3′C_A5′): 10.8 | Fitness Score ([1]; RNA motif 5′UCUAU3′/3′ACCA5′): 45 | Zobs ([1]; RNA motif 5′UCUAU3′/3′ACCA5′): 6.1 | Zobs ([1]; RNA motif 5′UUA3′/3′A_U5′): 13.6 and 9.5 | kinases inhibited in the panel (panel of 22 kinases): affected seven kinases modestly | average percent inhibition of the seven affected kinases (panel of 22 kinases): 14±3% | inhibition of CAMK4 in vitro (CAMK4): most significantly inhibited | IC50 [2]: 14 ± 1 µM | effect on viral replication together with ASO ([2]; with ASO Control binding 750 nucleotides downstream): less robust | effect on viral replication together with ASO ([2]; with ASO complementary to SL I, luciferase): synergistic effect
